How the values were obtained:
Experiment in all cases: relative viability (nuclei count vs DMSO), 5 days (fraction); higher = more cells survive
Alisertib + Dasatinib = compound: COc1cc(Nc2ncc3c(n2)-c2ccc(Cl)cc2C(c2c(F)cccc2OC)=NC3)ccc1C(=O)O [Alisertib] + Cc1nc(Nc2ncc(C(=O)Nc3c(C)cccc3Cl)s2)cc(N2CCN(CCO)CC2)n1 [Dasatinib] (partner 0.075 µM)
In short: (§1)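 A single step with final 0.05% Triton X-100, 1% formaldehyde and 1 ug/ml Hoechst fixed the cells and stained nuclei 5 days after treatment. Lung cancer cell lines in 1536-well plates had been treated by pin tool the day after seeding with one drug alone or a fixed anchor-drug dose plus five library-drug doses (not always all listed) in √10 steps, and nuclei were counted on 4× images. Relative viability is the ratio of nuclei in treated wells to nuclei in vehicle wells, taken as the median of duplicate plates.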

Alisertib + Alpelisib = compound: COc1cc(Nc2ncc3c(n2)-c2ccc(Cl)cc2C(c2c(F)cccc2OC)=NC3)ccc1C(=O)O [Alisertib] + Cc1nc(NC(=O)N2CCC[C@H]2C(N)=O)sc1-c1ccnc(C(C)(C)C(F)(F)F)c1 [Alpelisib] (partner 2 µM)
In short: as §1

Alisertib + Palbociclib = compound: COc1cc(Nc2ncc3c(n2)-c2ccc(Cl)cc2C(c2c(F)cccc2OC)=NC3)ccc1C(=O)O [Alisertib] + CC(=O)c1c(C)c2cnc(Nc3ccc(N4CCNCC4)cn3)nc2n(C2CCCC2)c1=O [Palbociclib] (partner 0.5 µM)
In short: as §1

Alisertib + Bortezomib = compound: COc1cc(Nc2ncc3c(n2)-c2ccc(Cl)cc2C(c2c(F)cccc2OC)=NC3)ccc1C(=O)O [Alisertib] + CC(C)C[C@H](NC(=O)[C@H](Cc1ccccc1)NC(=O)c1cnccn1)B(O)O [Bortezomib] (partner 0.002 µM)
In short: as §1

| Cell Line | relative viability (Alisertib + Dasatinib; first compound 0.005 µM) | relative viability (Alisertib + Dasatinib; first compound 0.01581 µM) | relative viability (Alisertib + Dasatinib; first compound 0.05 µM) | relative viability (Alisertib + Dasatinib; first compound 0.1581 µM) | relative viability (Alisertib + Dasatinib; first compound 0.5 µM) | relative viability (Alisertib + Alpelisib; first compound 0.005 µM) | relative viability (Alisertib + Alpelisib; first compound 0.01581 µM) | relative viability (Alisertib + Alpelisib; first compound 0.05 µM) | relative viability (Alisertib + Alpelisib; first compound 0.1581 µM) | relative viability (Alisertib + Alpelisib; first compound 0.5 µM) | relative viability (Alisertib + Palbociclib; first compound 0.005 µM) | relative viability (Alisertib + Palbociclib; first compound 0.01581 µM) | relative viability (Alisertib + Palbociclib; first compound 0.05 µM) | relative viability (Alisertib + Palbociclib; first compound 0.1581 µM) | relative viability (Alisertib + Palbociclib; first compound 0.5 µM) | relative viability (Alisertib + Bortezomib; first compound 0.005 µM) | relative viability (Alisertib + Bortezomib; first compound 0.01581 µM) | relative viability (Alisertib + Bortezomib; first compound 0.05 µM) | relative viability (Alisertib + Bortezomib; first compound 0.1581 µM) | relative viability (Alisertib + Bortezomib; first compound 0.5 µM) |
| --- | --- | --- | --- | --- | --- | --- | --- | --- | --- | --- | --- | --- | --- | --- | --- | --- | --- | --- | --- | --- |
| UMC-11 | 0.32 | 0.184 | 0.157 | 0.144 | 0.127 | 0.736 | 0.194 | 0.137 | 0.135 | 0.103 | 0.331 | 0.289 | 0.248 | 0.223 | 0.275 | 0.34 | 0.184 | 0.0876 | 0.107 | 0.122 |
| PC-3 [JPC-3] | 0.917 | 0.927 | 0.907 | 0.781 | 0.442 | 0.952 | 0.98 | 0.751 | 0.598 | 0.369 | 0.537 | 0.53 | 0.515 | 0.541 | 0.513 | 0.796 | 0.828 | 0.775 | 0.539 | 0.39 |
| COR-L23 | 0.486 | 0.439 | 0.23 | 0.0935 | 0.0796 | 0.777 | 0.697 | 0.369 | 0.155 | 0.0816 | 0.253 | 0.234 | 0.142 | 0.112 | 0.0947 | 0.895 | 0.789 | 0.647 | 0.137 | 0.131 |
| HCC-78 | 0.379 | 0.369 | 0.177 | 0.171 | 0.188 | 0.319 | 0.254 | 0.162 | 0.133 | 0.142 | 0.5 | 0.458 | 0.357 | 0.407 | 0.307 | 0.522 | 0.272 | 0.24 | 0.19 | 0.175 |
| NCI-H2405 | 0.196 | 0.202 | 0.189 | 0.152 | 0.132 | 0.817 | 0.707 | 0.699 | 0.42 | 0.248 | 0.497 | 0.504 | 0.495 | 0.317 | 0.257 | 0.932 | 0.929 | 0.95 | 0.494 | 0.298 |
| SW 1573 | 0.329 | 0.299 | 0.141 | 0.159 | 0.0978 | 0.768 | 0.798 | 0.455 | 0.272 | 0.171 | 0.304 | 0.27 | 0.152 | 0.134 | 0.117 | 0.937 | 0.726 | 0.492 | 0.29 | 0.161 |
| EMC-BAC-2 | 0.315 | 0.221 | 0.185 | 0.161 | 0.128 | 0.701 | 0.567 | 0.296 | 0.259 | 0.143 | 0.51 | 0.416 | 0.4 | 0.382 | 0.268 | 0.91 | 0.947 | 0.579 | 0.229 | 0.243 |
| NCI-H647 | 0.186 | 0.16 | 0.104 | 0.0476 | 0.0381 | 1.05 | 0.691 | 0.341 | 0.148 | 0.0808 | 0.282 | 0.332 | 0.161 | 0.0956 | 0.0773 | 0.598 | 0.572 | 0.305 | 0.133 | 0.086 |
| LCLC-97TM1 | 0.773 | 0.712 | 0.709 | 0.192 | 0.173 | 0.23 | 0.203 | 0.15 | 0.138 | 0.112 | 0.222 | 0.215 | 0.127 | 0.0905 | 0.0969 | 0.51 | 0.725 | 0.108 | 0.0791 | 0.0549 |
| H3255 | 0.328 | 0.445 | 0.279 | 0.242 | 0.292 | 0.797 | 0.687 | 0.463 | 0.252 | 0.199 | 0.313 | 0.314 | 0.312 | 0.278 | 0.249 | 0.664 | 0.733 | 0.46 | 0.216 | 0.195 |
| LXF-289 | 0.206 | 0.256 | 0.0522 | 0.0513 | 0.0398 | 0.909 | 0.592 | 0.215 | 0.133 | 0.0979 | 0.571 | 0.527 | 0.267 | 0.204 | 0.181 | 0.823 | 0.608 | 0.323 | 0.108 | 0.128 |
| LC-2-ad | 0.315 | 0.33 | 0.263 | 0.202 | 0.133 | 0.766 | 0.631 | 0.209 | 0.138 | 0.0966 | 0.413 | 0.459 | 0.282 | 0.276 | 0.21 | 0.907 | 0.369 | 0.264 | 0.144 | 0.112 |
| A-427 | 0.645 | 0.565 | 0.291 | 0.139 | 0.128 | 1.03 | 0.922 | 0.173 | 0.165 | 0.14 | 0.493 | 0.444 | 0.255 | 0.276 | 0.24 | 0.89 | 0.818 | 0.751 | 0.149 | 0.15 |
| NCI-H322M | 0.233 | 0.23 | 0.26 | 0.184 | 0.206 | 0.64 | 0.794 | 0.857 | 0.476 | 0.303 | 0.473 | 0.475 | 0.477 | 0.413 | 0.417 | 1.15 | 1.11 | 1.25 | 0.471 | 0.46 |
| HCC-366 | 0.674 | 0.353 | 0.0282 | 0.0222 | 0.0468 | 0.337 | 0.46 | 0.0611 | 0.0117 | 0.0152 | 0.361 | 0.322 | 0.0243 | 0.0284 | 0.039 | 1.04 | 0.345 | 0.0201 | 0.0154 | 0.0255 |
| NCI-H1975 | 0.298 | 0.333 | 0.286 | 0.153 | 0.109 | 0.632 | 0.621 | 0.295 | 0.215 | 0.168 | 0.454 | 0.547 | 0.299 | 0.259 | 0.168 | 0.324 | 0.334 | 0.215 | 0.159 | 0.152 |

— the supplement of paper PMC10307832
